Test results as given in US20230293539A1, “MLL1-WDR5 PROTEIN-PROTEIN INTERACTION INHIBITOR COMPOUNDS AND USES THEREOF” (HUYABIO International, LLC, priority 2022, published 2023).
pIC50: −log10 of the molar value.

Columns and labels:
Liver S9 stability assay [1] = format: in vitro ADME, rat
Method: (§1) Liver S9 stability assay: Test compounds (1 μM) and positive control were incubated with 5 mM GSH and liver S9 (1 mg protein/ml) from multiple species (including human, monkey, dog, rat and mouse) at 37° C. at 0, 10, 30, and 60 minutes in duplicate. After adding the stop solution, 100 μL of supernatant were analyzed by LC-MS/MS. The % remaining of test compound, T1/2 (min), and CLint (μL/min/mg) were calculated and were reported.

Liver S9 stability assay [2] = format: in vitro ADME, human
Method: as §1

[3] = WBS (whole blood stability) assay; format: in vitro ADME; conditions: for % Remaining after 60 min incubation: 2 μM, 37° C.
Method: WBS (whole blood stability) assay: The blood samples were collected freshly from multiple species including human, monkey, dog, rat and mouse. 2 μM of test compound and positive control were incubated with the whole blood at 37° C. at 0, 10, 30, 60, and 120 minutes in duplicate. After adding the stop solution, 200 μL of supernatant were analyzed by LC-MS/MS. The % remaining of test compound and T1/2 (min) were calculated and reported.

Liver S9 stability assay [4] = format: in vitro ADME, mouse
Method: as §1

WDR5 = WDR5 (Homo sapiens, UniProt P61964); assay: WDR5 TR-FRET Assay; format: binding; conditions: 5 nM WDR5 protein, 10 nM peptide, read-out: IC50 (MLL1-WDR5 PPI inhibitory activity)
Method: WDR5 TR-FRET Assay Procedure: Stock compounds were transferred to the assay plate by Echo Liquid Handler. Reactions were performed in the assay buffer (1×PBS, 300 mM NaCl, 0.5 mM TCEP, 0.1% CHAPS) containing 5 nM WDR5 protein, 10 nM peptide (Ac-ARTEVHLRKS-[Ahx-Ahx][C]-Alexa Fluor 488-NH2) and 0.25 nM Tb-anti His antibody (Tb-Ab) in 384-well white plate (PerkinElmer) with a final volume of 20 μl. Compounds were incubated with WDR5 protein for 30 min at room temperature. Plates were covered, protected from light and incubated for 60 min. at room temperature after adding the peptide and Tb-Ab. EnVision Multimode Plate Reader (PerkinElmer) was used for the TR-FRET assay with excitation wavelength at 340 nm and emission wavelength at 495 and 520 nm. The ratio of the 520/495 nm wavelengths were used to assess the degree of the FRET signal. IC50 was calculated by fitting the inhibition data using XLfit software to sigmoidal dose-response model.

MV 411 cells = assay: Cell Viability Assay (CellTiter-Glo); format: cell-based; conditions: Homo sapiens, MV4-11, 72 hours, read-out: IC50 (anti-proliferative activity against leukemia cells)
Method: Cell lines and maintenance: All cell lines (MV 411) used for in vitro and in vivo studies were supplied as part of Wuxi AppTech cell bank. Cell lines were maintained in a medium supplemented with 10% heat inactivated fetal bovine serum at 37° C., in an atmosphere of 5% CO2, in air. The tumor cells were routinely subcultured twice weekly. The cells growing in an exponential growth phase were used for the in vitro cell potency and in vivo efficacy studies.
EXAMPLE 1: Cell Viability Assay: For cell cytotoxicity assays, 2000 cells/well were plated in 384-well plates. Twenty four hours after plating, cells were treated with inhibitors at the indicated compound concentrations. On Day 3 (72 hours), cells were lysed with CellTiter-Glo® Luminescent Cell Viability Assay reagent (Promega) and luminescence was read using the EnVision Multi-plate reader. To calculate IC50, a dose-response curve is generated using a nonlinear regression model with a sigmoidal dose response. The formula of surviving rate is shown below. IC50 values were automatically generated by GraphPad Prism 8.0. See FIG. 1A and FIG. 1B and Tables 3 and 4.

Mouse PK (oral) = format: in vivo, C57/B16 mice; conditions: for Cmax: plasma; for AUC(0-t) / half-life: C57/B16, plasma
Method: Mouse PK: Animals were dosed with a single intravenous bolus or oral gavage administration in naïve C57/B16 mice (Beijing Vital River Laboratory Animal Co., LTD). Blood samples were collected at the respective sampling time points. The quantification of compound concentrations in mouse or rat plasma was quantified using LC-MS/MS method. Plasma concentration versus time data was analyzed by non-compartmental mode approaches using the WinNonlin software program (version 6.3 or above, Pharsight). Pharmacokinetic parameters, including C0 (initial concentration after drug administration), […], Vdss (volume of distribution), Cmax (maximum peak concentration of the drug), Tmax (time required to reach Cmax) T1/2 (time required for drug concentration to decrease by 50% after administration), AUC0-last (area under the concentration-time curve from dosing time t=0 to the time of the last measured concentration), AUC0-inf (total drug exposure across time), MRT0-last (mean residence time from dosing time t=0 to the time of the last measured concentration), MRT0-inf f (mean residence time of total drug exposure), bioavailability (%) (the percentage (or the fraction F) of an administered drug dose that reaches the systemic circulation) for IV and PO groups were calculated. See Table 7 and FIGS. 6A, 6B, 6C and 6D.

Liver S9 stability assay [5] = format: in vitro ADME, dog
Method: as §1

[6] = Compound formulation stability assay; format: physicochemical; conditions: 10 mg/mL in 10% DMSO/10% solutol HS 15/80% water, 2-8° C.
Method: Compound formulation stability assay: Test articles were formulated in 10% DMSO/10% solutol HS 15/80% water and stored at 4° C. Formulated compounds were analyzed by a HPLC-UV method for actual concentrations and % remaining on Day 1, 4 and 7 after formulation to determine the stability of the formulated test article. The HPLC system was equipped with Shimadzu LC-20 high-performance liquid chromatograph, SIL-20AC auto sampler, LC-20AB pump and SPD-M20A detector. A Waters XBridge C18 (4.6*100 mm) column was applied for the separation. […]

**Q.** Which half-life at 1 μM (Liver S9 stability assay [1]; Rat liver S9) does the source give for `C[C@H]1CN(c2cc(F)c(-c3cnc(N4CCOCC4)nc3)cc2Nc2ncnc(Cl)c2N)CCN1C` [DDO-2213_020, (S)-6-chloro-N4-(2-(3,4-dimethylpiperazin-1-yl)-4-fluoro-5-(2-morpholinopyrimidin-5-yl)phenyl)pyrimidine-4,5-diamine] here?
**A.** Its half-life at 1 μM is over 2.42 h.

**Q.** What about the microsomal CLint at 1 μM (Liver S9 stability assay [1]; Rat liver S9) of the same molecule?
**A.** Its microsomal CLint at 1 μM is under 4.8 µL/min/mg.

**Q.** What about the “% Remaining after 60 min incubation” value (Liver S9 stability assay [1]; Rat liver S9, 1 μM, 5 mM GSH, 37° C.) of the same molecule?
**A.** The value was 88.8%.

**Q.** What about the half-life at 1 μM (Liver S9 stability assay [2]; Human liver S9) of the same molecule?
**A.** Its half-life at 1 μM is over 2.42 h.

**Q.** And the microsomal CLint at 1 μM (Liver S9 stability assay [2]; Human liver S9)?
**A.** Its microsomal CLint at 1 μM is under 4.8 µL/min/mg.

**Q.** What about the “% Remaining after 60 min incubation” value (Liver S9 stability assay [2]; Human liver S9, 1 μM, 5 mM GSH, 37° C.) of the same molecule?
**A.** The value was 92.1%.

**Q.** What about the half-life at 2 μM ([3]; Dog whole blood) of the same molecule?
**A.** Its half-life at 2 μM is over 2.41 h.

**Q.** And the “% Remaining after 60 min incubation” value ([3]; Dog whole blood)?
**A.** Its value is 101%.

**Q.** What about the half-life at 2 μM ([3]; Human whole blood) of the same molecule?
**A.** Its half-life at 2 μM is 5 h.

**Q.** What about the “% Remaining after 60 min incubation” value ([3]; Human whole blood) of the same molecule?
**A.** The value was 103%.

**Q.** And the half-life at 2 μM ([3]; Mouse whole blood)?
**A.** Its half-life at 2 μM is over 2.41 h.

**Q.** What about the “% Remaining after 60 min incubation” value ([3]; Mouse whole blood) of the same molecule?
**A.** The value was 104%.

**Q.** And the half-life at 2 μM ([3]; Rat whole blood)?
**A.** The half-life at 2 μM was over 2.41 h.

**Q.** And the “% Remaining after 60 min incubation” value ([3]; Rat whole blood)?
**A.** The value was 1%.

**Q.** What about the half-life at 1 μM (Liver S9 stability assay [4]; Mouse liver S9) of the same molecule?
**A.** Its half-life at 1 μM is over 2.42 h.

**Q.** And the microsomal CLint at 1 μM (Liver S9 stability assay [4]; Mouse liver S9)?
**A.** The microsomal CLint at 1 μM was under 4.8 µL/min/mg.

**Q.** What about the “% Remaining after 60 min incubation” value (Liver S9 stability assay [4]; Mouse liver S9, 1 μM, 5 mM GSH, 37° C.) of the same molecule?
**A.** The value was 93.4%.

**Q.** What about the pIC50 (WDR5) of the same molecule?
**A.** The pIC50 was 8.12.

**Q.** What about the pIC50 (MV 411 cells) of the same molecule?
**A.** The pIC50 was 5.24.

**Q.** What about the F (Mouse PK (oral); 10 mpk) of the same molecule?
**A.** Its F is 61.5%.

**Q.** And the F (Mouse PK (oral); 30 mpk)?
**A.** Its F is 107.0%.

**Q.** What about the Cmax (Mouse PK (oral); C57/B16, 10 mg/kg, 10 mpk) of the same molecule?
**A.** The Cmax was 1.67 µM.

**Q.** And the Cmax (Mouse PK (oral); C57/B16, 30 mg/kg, 30 mpk)?
**A.** The Cmax was 5.47 µM.

**Q.** What about the AUC(0-t) (Mouse PK (oral); 10 mg/kg, 10 mpk) of the same molecule?
**A.** The AUC(0-t) was 7.1 µM·h.

**Q.** What about the half-life (Mouse PK (oral); 10 mg/kg, 10 mpk) of the same molecule?
**A.** The half-life was 3.3 h.

**Q.** What about the AUC(0-t) (Mouse PK (oral); 30 mg/kg, 30 mpk) of the same molecule?
**A.** The AUC(0-t) was 37 µM·h.

**Q.** What about the half-life (Mouse PK (oral); 30 mg/kg, 30 mpk) of the same molecule?
**A.** Its half-life is 2.7 h.

**Q.** What about the half-life at 1 μM (Liver S9 stability assay [5]; Dog liver S9) of the same molecule?
**A.** Its half-life at 1 μM is over 2.42 h.

**Q.** What about the microsomal CLint at 1 μM (Liver S9 stability assay [5]; Dog liver S9) of the same molecule?
**A.** Its microsomal CLint at 1 μM is under 4.8 µL/min/mg.

**Q.** What about the “% Remaining after 60 min incubation” value (Liver S9 stability assay [5]; Dog liver S9, 1 μM, 5 mM GSH, 37° C.) of the same molecule?
**A.** The value was 78%.

**Q.** And the “Accuracy % (Day 0)” value ([6]; Day 0)?
**A.** Its value is 89.8%.

**Q.** And the “Formulation Appearance (Day 0)” value ([6]; Day 0)?
**A.** The value was “clear solution”.

**Q.** What about the “Remaining % (Day 0)” value ([6]; Day 0) of the same molecule?
**A.** Its value is 100%.

**Q.** What about the “Accuracy % (Day 1)” value ([6]; Day 1) of the same molecule?
**A.** Its value is 91.6%.

**Q.** What about the “Formulation Appearance (Day 1)” value ([6]; Day 1) of the same molecule?
**A.** The value was “clear solution”.

**Q.** What about the “Remaining % (Day 1)” value ([6]; Day 1) of the same molecule?
**A.** The value was 102%.

**Q.** What about the “Accuracy % (Day 4)” value ([6]; Day 4) of the same molecule?
**A.** The value was 92.0%.

**Q.** What about the “Formulation Appearance (Day 4)” value ([6]; Day 4) of the same molecule?
**A.** Its value is “clear solution”.

**Q.** What about the “Remaining % (Day 4)” value ([6]; Day 4) of the same molecule?
**A.** The value was 100%.

**Q.** And the “Accuracy % (Day 7)” value ([6]; Day 7)?
**A.** The value was 95.5%.

**Q.** And the “Formulation Appearance (Day 7)” value ([6]; Day 7)?
**A.** The value was “clear solution”.

**Q.** And the “Remaining % (Day 7)” value ([6]; Day 7)?
**A.** Its value is 104%.
